Measured values from US20250197374A1, “WEE1 DEGRADING COMPOUNDS AND USES THEREOF” (BRISTOL-MYERS SQUIBB COMPANY, priority 2023, published 2025).
pEC50: −log10 of the molar value.

Tests used:
Type in all cases: cell-based
MKN45 cells = test: MKN45 cell proliferation assay (Cell-Titer-Glo, 120 hr); settings: for pEC50: Homo sapiens, MKN-45, 120 h, read-out: MKN45 Cell Prolif. 120 hr EC50; for MKN45 Cell Prolif. 120 hr YMin (%): minimal percent of DMSO control observed
Text: (§1) MKN45 cells were obtained from Celgene internal cell banks and cultured in RPMI complete media (RPMI-1640, 1× Penicillin/Streptomycin, 1× glutamine, 1× Sodium Pyruvate, Non-essential Amino Acids, 10% Fetal Bovine serum, all component from Thermo-Fisher). MDA-MB-231 cells were obtained from the ATCC (HTB-26) and cultured in RPMI-1640 and 10% Fetal Bovine serum; MDA-MB-231 cells were expanded and stored as aliquots in liquid nitrogen in Celgene internal cell banks. Compounds were dispensed into 384-well plates using an HP DE300 compound printer in triplicate with 8 compounds on each plate. Compounds were dispensed into 384-well black clear bottom plates (Corning #3764BC) using an EDC acoustic dispenser at BMS. For each compound, a 10-point dose response was printed at half-log dilutions starting at either 1 uM or 10 uM in triplicate for MKN45 cells and in duplicate for MDA-MB-231 cells. The DMSO concentration was kept constant for a final assay concentration of 0.1% per well assuming 50 ul final media volume. Compound plates were sealed and frozen at −20 C until use.
(§2) For each assay batch, compound plates were thawed and allowed to reach room temperature, and cells were seeded at 400 MKN45 cells per well, or 800 MDA-MB-231 cells per well, in 50 ul media listed above for each cell line. After 120 hours of incubation at 37 C and 5% CO2, cells were lysed by addition of 25 μL of Cell-Titer-Glo Reagent (Promega Corporation, Madison, WI), as per manufacturer's instructions, protected from light, shaken for 45 minutes, and total luminescence read by a Perkin Elmer Envision plate reader. Total luminescence signal is linearly correlated with cell number remaining in the well.
(§3) Luminescence data was processed per plate by subtracting reagent-only “blank” well luminescence from all measured values and calculating a percent of DMSO control value for each treatment well. Then, to determine the half-maximal effective concentration (EC50) values for cell growth inhibition, a four parameter logistic model was fit to the data for each DMSO-normalized compound: Sigmoidal Dose-Response Model: (FIT=(A+((B−A)/1+((C/x)^D)))) where C is the inflection point ([…]), D is the Hill slope, and A and B are the low and high limits of the fit respectively. The lower limit of the fit (value A) is referred to as Ymin-calculated. The minimal percent of DMSO control that is observed in the concentrations tested for each compound is labeled as “Ymin-obs”, and was recorded and reported in the tables. Sigmoidal fit curves were processed and evaluated using Activity Base (IDBS, Alameda, CA) or using Dotmatics (Boston, MA). N/A=not available at the present time.

WEE1 = target: T1, WEE1 (Homo sapiens, UniProt P30291+Q96SW2); test: WEE1-ePL degradation assay (293T-LentiX, InCELL Hunter luminescence, 4 hr); settings: for DC50: LentiX-HEK293T cells expressing WEE1-ePL, 4 hr incubation, read-out: 293T-LentiX WEE1-ePL Degradation 4 hr EC50; for 293T-LentiX WEE1-ePL Degradation 4 hr YMin (%): lower limit of fit, % of DMSO control signal remaining
T1 construct: C-terminal ePL-tagged (DiscoverX, Fremont, CA) full-length WEE1 expression construct; expressed in transfected cells; host or cells: LentiX-HEK293T (Invitrogen), lentivirally transduced; the cells also over-express GSPT1-GN
Text: To generate LentiX-WEE1-ePL-GSPT1-ND cells for the WEE1 degradation assay, LentiX-HEK293T (Invitrogen) were tranduced by lentivirus with a C-terminal ePL-tagged (DiscoverX, Fremont, CA) full-length WEE1 expression construct. A separate lentiviral construct was introduced to over-express a mutated form of GSPT1 (NP_002085), termed GSPT1-GN, which contains a G575N mutation and is further truncated in the first 158 amino acids. GSPT1-GN is functional but not degradable by Cereblon. Cells were selected and maintained in complete DMEM media (DMEM, 10% Heat Inactivated FBS, 400 μg/mL Geneticin, and 1 μg/mL puromycin at 37 C and 5% CO2). Cells were passaged every 3-4 days by reseeding 1×10^6 cells in a T150 flask.
Cells were dispensed into 384-well white plates (Corning #3570, NY) that were pre-spotted with compounds using an acoustic dispenser (Echo acoustic transfer system, Beckman Coulter Life Sciences, Carlsbad, CA) as a 10-point dose-response curve with a 3-fold dilution starting at either 1 uM or 10 uM and including a DMSO control. Twenty-five microliters of media containing 2500 cells for LentiX-oeWEE1-ePL was dispensed per well. Assay plates were incubated at 37° C. with 5% CO2 for four hours (WEE1) After incubation, 25 μL of the InCELL Hunter™ Detection Reagent Working Solution (DiscoverX, Fremont, CA) was added to each well and incubated at room temperature for 30 minutes protected from light. After 30 minutes, luminescence was read on a PHERAstar luminometer (Cary, NC).
To determine the half-maximal effective concentration (EC50) values for WEE1-ePL degradation, a four parameter logistic model was used: (Sigmoidal Dose-Response Model) (FIT=(A+((B−A)/1+((C/x)^D)))) where C is the inflection point (EC50), D is the Hill slope, and A and B are the low and high limits of the fit respectively). The lower limit of the fit (value A) is referred to as Ymin. […] The maximum limit constraint, Ymax, is similarly derived using DMSO control. The curves were processed and evaluated using Activity Base (IDBS, Alameda, CA) or using Dotmatics (Boston, MA).

MDA-MB-231 cells = test: MDA-MB-231 cell proliferation assay (Cell-Titer-Glo, 120 hr); settings: for pEC50: Homo sapiens, MDA-MB-231, 120 h, read-out: MDA-MB 231 Cell Prolif. 120 hr EC50; for MDA-MB 231 Cell Prolif. 120 hr YMin (%): minimal percent of DMSO control observed
Text: as §1, §2, §3

T1 sequence (P30291 whole entry): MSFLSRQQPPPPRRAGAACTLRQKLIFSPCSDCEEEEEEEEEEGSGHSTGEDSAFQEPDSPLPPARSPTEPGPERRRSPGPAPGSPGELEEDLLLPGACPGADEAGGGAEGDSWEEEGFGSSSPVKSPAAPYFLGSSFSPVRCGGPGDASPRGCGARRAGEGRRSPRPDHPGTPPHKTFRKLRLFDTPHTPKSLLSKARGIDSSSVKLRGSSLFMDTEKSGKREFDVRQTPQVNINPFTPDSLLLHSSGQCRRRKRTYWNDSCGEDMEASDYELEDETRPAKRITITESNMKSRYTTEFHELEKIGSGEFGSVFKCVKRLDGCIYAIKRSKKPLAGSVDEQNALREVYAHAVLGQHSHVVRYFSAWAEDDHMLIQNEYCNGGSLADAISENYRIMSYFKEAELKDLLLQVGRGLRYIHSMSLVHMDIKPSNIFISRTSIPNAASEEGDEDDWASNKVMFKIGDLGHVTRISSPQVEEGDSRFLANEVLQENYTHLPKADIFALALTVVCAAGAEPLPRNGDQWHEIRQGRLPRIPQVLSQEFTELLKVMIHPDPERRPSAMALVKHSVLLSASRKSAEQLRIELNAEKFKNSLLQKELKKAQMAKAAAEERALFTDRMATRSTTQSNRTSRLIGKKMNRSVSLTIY
T1 sequence (Q96SW2 whole entry): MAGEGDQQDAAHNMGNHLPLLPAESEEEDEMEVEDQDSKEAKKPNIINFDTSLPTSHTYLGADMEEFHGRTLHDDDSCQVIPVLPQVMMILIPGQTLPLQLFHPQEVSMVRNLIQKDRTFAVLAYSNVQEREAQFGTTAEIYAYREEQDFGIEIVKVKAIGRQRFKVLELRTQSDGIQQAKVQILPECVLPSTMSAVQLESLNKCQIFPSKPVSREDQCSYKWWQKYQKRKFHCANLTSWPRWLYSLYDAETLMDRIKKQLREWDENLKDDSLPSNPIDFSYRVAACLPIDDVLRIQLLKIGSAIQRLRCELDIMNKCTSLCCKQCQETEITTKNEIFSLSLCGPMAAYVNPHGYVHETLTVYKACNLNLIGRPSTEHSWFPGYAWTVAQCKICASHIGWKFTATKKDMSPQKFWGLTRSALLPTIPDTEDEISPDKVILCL
T1 sequence (Q16531 whole entry partner): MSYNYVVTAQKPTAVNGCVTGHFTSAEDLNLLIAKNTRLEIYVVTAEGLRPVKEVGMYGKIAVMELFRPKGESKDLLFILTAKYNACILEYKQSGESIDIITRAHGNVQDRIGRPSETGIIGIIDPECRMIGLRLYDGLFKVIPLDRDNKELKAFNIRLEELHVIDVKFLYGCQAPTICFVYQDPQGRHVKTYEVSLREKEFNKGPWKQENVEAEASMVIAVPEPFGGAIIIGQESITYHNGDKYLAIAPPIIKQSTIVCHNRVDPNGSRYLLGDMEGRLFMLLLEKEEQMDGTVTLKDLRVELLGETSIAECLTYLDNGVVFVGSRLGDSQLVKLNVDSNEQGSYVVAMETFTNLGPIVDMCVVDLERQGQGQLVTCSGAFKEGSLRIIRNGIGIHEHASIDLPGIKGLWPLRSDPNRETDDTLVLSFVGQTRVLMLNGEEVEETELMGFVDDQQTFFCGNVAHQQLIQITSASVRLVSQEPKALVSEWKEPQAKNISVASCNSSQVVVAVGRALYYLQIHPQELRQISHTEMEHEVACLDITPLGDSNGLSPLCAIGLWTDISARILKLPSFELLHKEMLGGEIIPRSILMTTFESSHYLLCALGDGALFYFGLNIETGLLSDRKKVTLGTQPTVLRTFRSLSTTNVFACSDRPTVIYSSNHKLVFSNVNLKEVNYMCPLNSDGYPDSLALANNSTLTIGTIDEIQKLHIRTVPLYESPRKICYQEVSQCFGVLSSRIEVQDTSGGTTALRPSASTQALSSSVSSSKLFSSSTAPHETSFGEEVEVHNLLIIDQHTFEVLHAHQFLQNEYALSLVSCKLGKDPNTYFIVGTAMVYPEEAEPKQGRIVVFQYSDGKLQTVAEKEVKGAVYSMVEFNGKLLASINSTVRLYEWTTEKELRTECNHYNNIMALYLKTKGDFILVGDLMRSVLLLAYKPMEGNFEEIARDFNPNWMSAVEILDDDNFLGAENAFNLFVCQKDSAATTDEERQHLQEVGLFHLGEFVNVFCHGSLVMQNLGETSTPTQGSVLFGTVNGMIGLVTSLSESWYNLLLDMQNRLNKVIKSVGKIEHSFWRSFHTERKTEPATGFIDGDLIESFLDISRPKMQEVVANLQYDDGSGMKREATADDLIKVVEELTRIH

Structure (SMILES) | pEC50 (MKN45 cells) | DC50 (WEE1) [nM] | 293T-LentiX WEE1-ePL Degradation 4 hr YMin (%) (WEE1) | pEC50 (MDA-MB-231 cells) | MKN45 Cell Prolif. 120 hr YMin (%) (MKN45 cells) | MDA-MB 231 Cell Prolif. 120 hr YMin (%) (MDA-MB-231 cells)
CN1CC[C@]2(C[C@H](c3ccc4cc(CN5CC[C@H](Oc6ccc7c(c6)CN([C@H]6CCC(=O)NC6=O)C7=O)C5)ccc4n3)CO2)C1 (relative stereo) [Example 3, rel-(3S)-3-(5-(((3S)-1-((2-(7-methyl-1-oxa-7-azaspiro[4.4]nonan-3-yl)quinolin-6-yl)methyl)pyrrolidin-3-yl)oxy)-1-oxoisoindolin-2-yl)piperidine-2,6-dione] | 7.72 | 10 | 28.1 | 6.89 | 13.0 | 61.3
O=C1CC[C@H](N2Cc3cc(O[C@@H]4CN(Cc5cc(F)c6nc(N7C[C@H]8CCO[C@H]8C7)ccc6c5)CC4(F)F)ccc3C2=O)C(=O)N1 (single isomer, unassigned) [Example 14, (S)-3-(5-(((R)-4,4-difluoro-1-((8-fluoro-2-((3aR*,6aR*)-hexahydro-5H-furo[2,3-c]pyrrol-5-yl)quinolin-6-yl)methyl)pyrrolidin-3-yl)oxy)-1-oxoisoindolin-2-yl)piperidine-2,6-dione] | 8.22 | 3 | 31.8 | 7.20 | 10.2 | 34.4
COC[C@@H]1CN(Cc2ccc3ncc(N4CCOCC4)cc3c2)C[C@H]1Oc1ccc2c(c1)CN([C@H]1CCC(=O)NC1=O)C2=O [Example 29, (3S)-3-(5-{[(3S,4S)-4-(methoxymethyl)-1-{[3-(morpholin-4-yl)quinolin-6-yl]methyl}pyrrolidin-3-yl]oxy}-1-oxo-2,3-dihydro-1H-isoindol-2-yl)piperidine-2,6-dione] | 8.70 | 1 | 26.4 | 7.60 | 8.8 | 17.8
COC[C@@H]1CN(Cc2cc(F)c3nc(COC4CCN(C)CC4)ccc3c2)C[C@H]1Oc1ccc2c(c1)CN([C@H]1CCC(=O)NC1=O)C2=O [Example 34, (3S)-3-(5-{[(3S,4S)-1-[(8-fluoro-2-{[(1-methylpiperidin-4-yl)oxy]methyl}quinolin-6-yl)methyl]-4-(methoxymethyl)pyrrolidin-3-yl]oxy}-1-oxo-2,3-dihydro-1H-isoindol-2-yl)piperidine-2,6-dione] | 8.40 | 4 | 21.8 | 6.97 | 6.9 | 30.7
CN1CC[C@]2(C[C@@H](c3ccc4cc(CN5CC[C@H](Oc6ccc7c(c6)CN([C@H]6CCC(=O)NC6=O)C7=O)C5)ccc4n3)CO2)C1 (single isomer, unassigned) [Example 4] | 7.64 | 14 | 30.9 | 6.84 | 12.6 | 61.3

Continued, in another order:

pEC50 (MKN45 cells) | DC50 (WEE1) [nM] | 293T-LentiX WEE1-ePL Degradation 4 hr YMin (%) (WEE1) | pEC50 (MDA-MB-231 cells) | Structure (SMILES) | MKN45 Cell Prolif. 120 hr YMin (%) (MKN45 cells) | MDA-MB 231 Cell Prolif. 120 hr YMin (%) (MDA-MB-231 cells)
9.00 | 2 | 26.4 | 7.85 | COC[C@@H]1CN(Cc2cc(F)c3nc(C4CCN(CC(F)(F)F)C4)ccc3c2)C[C@H]1Oc1ccc2c(c1)CN([C@H]1CCC(=O)NC1=O)C2=O (relative stereo) [Example 68, rel-(3S)-3-(5-(((3S,4S)-1-((8-fluoro-2-(1-(2,2,2-trifluoroethyl)pyrrolidin-3-yl)quinolin-6-yl)methyl)-4-(methoxymethyl)pyrrolidin-3-yl)oxy)-1-oxoisoindolin-2-yl)piperidine-2,6-dione] | 8.9 | 17.4
9.00 |  | 30.8 | 7.08 | COC[C@@H]1CN(Cc2ccc3nc(C4CCOC(C)(C)C4)ccc3c2)C[C@H]1Oc1ccc2c(c1)CN([C@H]1CCC(=O)NC1=O)C2=O (stereo partly drawn) [Example 84, (3S)-3-(5-{[(3S,4S)-1-{[2-(2,2-dimethyloxan-4-yl)quinolin-6-yl]methyl}-4-(methoxymethyl)pyrrolidin-3-yl]oxy}-1-oxo-2,3-dihydro-1H-isoindol-2-yl)piperidine-2,6-dione] | 10.5 | 21.0
8.70 | 2 | 22.0 | 7.64 | COC[C@@H]1CN(Cc2ccc3nc(C4CCN(C5CN(C)C5)CC4)ccc3c2)C[C@H]1Oc1ccc2c(c1)CN([C@H]1CCC(=O)NC1=O)C2=O [Example 122, (3S)-3-(5-{[(3S,4S)-4-(methoxymethyl)-1-({2-[1-(1-methylazetidin-3-yl)piperidin-4-yl]quinolin-6-yl}methyl)pyrrolidin-3-yl]oxy}-1-oxo-2,3-dihydro-1H-isoindol-2-yl)piperidine-2,6-dione] | 8.5 | 59.3
9.00 | 1 | 27.8 | 7.85 | COC[C@@H]1CN(Cc2cc(F)c3nc(N4CCN(CC(F)(F)F)CC4)ccc3c2)C[C@H]1Oc1ccc2c(c1)CN([C@H]1CCC(=O)NC1=O)C2=O [Example 44, (3S)-3-(5-{[(3S,4S)-1-({8-fluoro-2-[4-(2,2,2-trifluoroethyl)piperazin-1-yl]quinolin-6-yl}methyl)-4-(methoxymethyl)pyrrolidin-3-yl]oxy}-1-oxo-2,3-dihydro-1H-isoindol-2-yl)piperidine-2,6-dione] | 8.9 | 22.3
9.00 | 1 | 26.5 | 7.36 | COC[C@@H]1CN(Cc2cc(F)c3nc(N4CCN(C5COC5)CC4)ncc3c2)C[C@H]1Oc1ccc2c(c1)CN([C@H]1CCC(=O)NC1=O)C2=O [Example 141, (3S)-3-(5-{[(3S,4S)-1-({8-fluoro-2-[4-(oxetan-3-yl)piperazin-1-yl]quinazolin-6-yl}methyl)-4-(methoxymethyl)pyrrolidin-3-yl]oxy}-1-oxo-2,3-dihydro-1H-isoindol-2-yl)piperidine-2,6-dione] | 11.4 | 31.7
